Assay results from patent publication US8580321B2, “Method for reducing the effects of chemotherapy using flagellin related polypeptides” (priority 2003, dated 2013).

Assays:
[1] = tested on: NIH3T3-derived sarcoma and B16 melanoma tumors; experiment: Tumor sensitivity to radiation treatment in syngeneic mouse tumor models; assay type: in vivo
Method: Left Panel: NIH3T3-derived sarcoma cells were injected s.c. in NIH-Swiss mice. When tumors reached 7-10 mm in diameter, mice received three 4.3 Gy doses of total body irradiation, with or without pretreatment with AA′. […] U/t: untreated; AA′: AA′ with no irradiation; 3×4Gy: irradiation only; 3×4Gy+AA′: AA′ and irradiation. (The shape of curves reflects slow growth of tumors that is a characteristic of this model). […] Right Panel: The experiment was done in the same way with another syngeneic mouse tumor model: B16 melanoma (C57BL6 background). Treatment was applied when tumors reached 4-5 mm in diameter and involved three subsequent 4 Gy doses of total body gamma radiation applied with or without pretreatment with AA′ (30 min. before irradiation, 5 μg/mouse).
The ultimate test of a potential radioprotective agent in cancer treatment is tumor selectivity, its ability to protect normal tissues while providing no or little protection to the tumor. We injected 10 NIH-Swiss mice subcutaneously, in both flanks (20 tumors total), with 2×10^6 cells of syngeneic sarcoma cell line model (NIH3T3-derived and spontaneously transformed sarcoma with p53 inactivated by dominant negative inhibitor GSE56). When tumors reached the size of 5-7 mm in diameter (day 5), the mice were injected subcutaneously with 0.2 mg/kg of AA′ or saline vehicle and irradiated 1 hours later with […] of total-body y-irradiation (3×4.3 Gy=12.9 Gy total dose). Injections and irradiations were done at days 5, 6 and 7.

mice [2] = experiment: Acute toxicity in mice; assay type: in vivo, mouse; conditions: s.c. 0.5, 1, 2, 4 and 8 mg/kg, several days after administration
Method: The lethal dose of Salmonella flagellin is between 1 mg/kg (systemic inflammation) and 10 mg/kg (100% lethality). We subcutaneously administered increasing doses of AA′ to mice (4 mice per dose group) at 0.5, 1, 2, 4 and 8 mg/kg. Due to the lower (˜60%) molecular weight, 8 mg/kg of AA′ correspond to a molar-equivalent dose of 13.3 mg/kg of flagellin. […] The reduced toxicity may be sue to the absence of the central pro-inflammatory domain in the AA′ fragment.

[3] = Pharmacokinetics: plasma levels by sandwich ELISA; assay type: in vivo, mouse; conditions: ICR mice
Method: Pharmacokinetic parameters (effective concentration and the duration of drug the presence in the organism) may be important for route, dose and time of drug administration. The pharmacokinetics of CBLB502 (AA′) were thus tested for four common routes of injection: intravenous (i.v.), subcutaneous (s.c.), intraperitoneal (i.p.) or intramuscular (i.m.). A radioprotective dose of CBLB502 (AA′), 0.2 mg/kg, was injected in 12-15 week old ICR mice and plasma samples were collected at the specified times after injection (at least 3 mice/point). The levels of CBLB502 in plasma were measured by sandwich ELISA using known concentrations of CBLB502 spiked in the control ICR plasma for calibration.

[4] = tested on: NIH Swiss mice treated with cisplatinum
[5] = tested on: vascular endothelial cells of villi; experiment: TUNEL assay of apoptosis in intestinal tissue after irradiation; assay type: in vivo, mouse; conditions: 5 hours post irradiation, pretreated mice
From the text: In addition to purely histological observation of cell death and survival, we performed more specialized tests of apoptotic cell death in intestinal tissue using a TUNEL assay, which detects apoptosis-associated DNA fragmentation. These experiments allowed us to define with a high degree of probability cellular populations that are depleted by radiation and rescued by flagellin fragment treatment. The earliest radiation-induced alterations detectable in the small intestine after treatment with IR is apoptosis occurring in vascular endothelial cells of villi, which is seen as early as 5 hours post treatment (FIG. 17B). […] Effective protection of endothelial cells of the small intestine by the flagellin fragment may be due to expression of TLR5 in these cells.

mice [6] = conditions: known from literature; cited from earlier work
[7] = CBLB502 0.04 mg/kg s.c. 30 min before cisplatinum 20 mg/kg i.p.

Substance | mice cured and surviving radiotherapy plus AA′ ([1]; 3×4.3 Gy with AA′, irradiated-only mice all died by day 18) [%] | tumor growth in unirradiated mice ([1]; AA′ without irradiation) | radiation-induced shrinkage of tumors ([1]; s.c. 0.2 mg/kg 1 hour before each of 3 irradiations, sarcoma in NIH-Swiss mice) | effect on radiosensitivity of tumors ([1]; sarcoma and B16 melanoma) | detrimental effects (mortality, morbidity, systemic inflammation) (mice [2]) | time with significant (>5 ng/ml) levels in mouse plasma ([3]; 0.2 mg/kg intramuscular injection) [h] | disappearance from the bloodstream ([3]; 0.2 mg/kg intravenous injection) | levels and persistence in plasma by route ([3]; 0.2 mg/kg, intramuscular or intraperitoneal injection) | mean weight loss on any given day, cisplatinum 10 mg/kg with CBLB502 ([4]; CBLB502 0.04 mg/kg 30 min prior, n=11) [%] | weight response, cisplatinum 10 mg/kg with CBLB502 ([4]; CBLB502 0.04 mg/kg s.c. 30 min before cisplatinum 10 mg/kg i.p.) | maximum weight loss, cisplatinum 20 mg/kg with CBLB502 [4, 7] [%] | survival of animals, cisplatinum 20 mg/kg with CBLB502 [4, 7] [%] | behavior, cisplatinum with single injection of CBLB502 ([4]; FIG. 39D) | deaths, cisplatinum 10 mg/kg with CBLB502 ([4]; FIG. 39 experiment) | mice that died, cisplatinum 10 mg/kg with CBLB502 ([4]; death at Day 13, remaining mice survived to at least Day 30) | apoptosis in vascular endothelial cells of villi [5] | highest tolerable dose (mice [6]) [μg/mouse]
AA′: flagellin fragment (1-177)-Linker-(402-505), SEQ ID NO: 8 | 100 | decrease in the growth rate of tumors | enhanced | no effect | no visible detrimental effects | > 3 | more rapid disappearance | highest levels and longest persistence | ≤ 15 | not losing weight | ≤ 20 | 100 | active animals | No deaths | one mouse out of eleven | almost completely blocked | 
flagellin: Salmonella dublin FliC flagellin, 505 amino acids, SEQ ID NO: 1; recombinant full-length protein |  |  |  |  |  |  |  |  |  |  |  |  |  |  |  |  | 300
